Results taken from paper PMC8812735, “Discovery of triterpenoids as potent dual inhibitors of pancreatic lipase and human carboxylesterase 1” (Journal of Enzyme Inhibition and Medicinal Chemistry, 2022).
Like-named read-outs stand apart in the source and are kept apart here.

Columns and labels:
Pancreatic lipase (PL) = biological target: T1, Pancreatic lipase (PL) (Sus scrofa, UniProt P00591); experiment: Inhibition of PL-mediated 4-MUO hydrolysis; format: biochemical; details: 4-MUO substrate, mean ± SD (n = 3)
T1 construct: purchased Sigma Aldrich type II, Lot.SLBN9099V
T1 sequence (P00591 1-450): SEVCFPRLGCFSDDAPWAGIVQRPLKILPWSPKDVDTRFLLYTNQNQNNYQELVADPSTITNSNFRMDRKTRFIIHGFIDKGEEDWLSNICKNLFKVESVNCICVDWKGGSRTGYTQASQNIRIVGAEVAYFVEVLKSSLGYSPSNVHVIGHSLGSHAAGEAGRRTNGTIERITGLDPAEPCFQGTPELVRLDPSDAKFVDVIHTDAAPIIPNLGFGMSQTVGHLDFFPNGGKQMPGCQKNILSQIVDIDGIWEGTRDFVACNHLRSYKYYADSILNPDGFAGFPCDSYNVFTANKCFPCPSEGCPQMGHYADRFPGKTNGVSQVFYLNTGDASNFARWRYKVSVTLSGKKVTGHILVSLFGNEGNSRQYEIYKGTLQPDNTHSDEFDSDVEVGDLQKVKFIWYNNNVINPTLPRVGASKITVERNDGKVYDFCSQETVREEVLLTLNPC
Description: In addition, the background fluorescence in the absence of an enzyme source (PL) (add the same amount of citrate-Na2HPO4 buffer) was measured. […] Then start the reaction by adding 2 µL of 4-MUO probe (3 µM, final concentration). The fluorescence signal of 4-MU (hydrolytic metabolite) was detected by multi-mode microplate reader (SpectraMax M4, Molecular Devices, Urstein, Austria) with continuous oscillation for 20 min and recorded and analysed at 60 s intervals. The excitation wavelength and emission wavelength of 4-MU were set at 340 nm and 460 nm, respectively, and the gain value was 500.
(§1) Subsequently, various concentrations of substrates (selected according to Km) and different concentrations of inhibitors were used to determine the corresponding reaction rate, and the second slope graph of the Lineweaver–Burk diagram was used as a function of the inhibitor to calculate the corresponding inhibition constant (Ki) value. All kinetic data were fitted by the following kinetic equations (a–c), for competitive (a), non-competitive (b) and mixed inhibition (c): (a) V=(VmaxS)/[Km(1+I/Ki)+S] (b) V=(VmaxS)/[(Km+S)×(1+I/Ki)] (c) V=(VmaxS)/[(Km+S)×(1+I/αKi)] where V is the hydrolytic velocity of the reaction, Vmax is the maximum velocity. S and I are substrate (4-MUO, NLMe) and inhibitor (compound 39/41) concentrations, respectively. Ki is the inhibition constant of the tested inhibitor against the target PL and hCES1A; Km is the Michaelis constant (the substrate concentration at half of the Vmax).
All measurements were made in triplicate and the data obtained in the experiment were shown as mean ± SD.

hCES1A = biological target: T2, hCES1A (Homo sapiens, UniProt P23141); experiment: Inhibition of hCES1A-mediated NLMe hydrolysis in human liver microsomes; format: biochemical
T2 construct: tissue Bioreclamation IVT lot No. X008067; host or cells: pooled human liver microsomes from 50 donors
T2 sequence (P23141 18-567): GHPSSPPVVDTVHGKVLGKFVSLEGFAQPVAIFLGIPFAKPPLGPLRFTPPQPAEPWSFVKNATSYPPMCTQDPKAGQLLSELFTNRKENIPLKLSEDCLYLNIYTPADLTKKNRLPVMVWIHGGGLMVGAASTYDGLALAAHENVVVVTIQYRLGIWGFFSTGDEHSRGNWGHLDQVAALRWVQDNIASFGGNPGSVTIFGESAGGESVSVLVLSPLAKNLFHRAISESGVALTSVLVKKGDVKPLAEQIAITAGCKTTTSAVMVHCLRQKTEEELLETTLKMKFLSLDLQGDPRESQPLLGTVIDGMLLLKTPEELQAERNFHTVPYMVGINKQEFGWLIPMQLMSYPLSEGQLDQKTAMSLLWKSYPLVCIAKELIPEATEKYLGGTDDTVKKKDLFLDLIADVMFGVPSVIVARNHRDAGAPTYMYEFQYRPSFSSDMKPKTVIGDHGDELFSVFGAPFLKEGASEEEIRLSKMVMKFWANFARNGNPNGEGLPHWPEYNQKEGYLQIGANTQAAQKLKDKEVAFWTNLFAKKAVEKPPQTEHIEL
Description: N-Alkylated D-luciferin methyl ester (NLMe), a Specific probe for hCES1A[45], was used for assessing the inhibitory effects for triterpenoids, and BNPP was used as a positive inhibitor of hCES1A. […] Then NLMe (2 µL, 0.15 mM) was added to start the reaction. After shaking the reaction in 37 °C incubator for 10 min, 50 µL of reaction solution was removed and mixed with LDR (50 µL) to terminate the reaction. A multi-mode microplate reader was used to detect the luminescence signal of NL (the hydrolysed metabolite of NLMe). The luminescence product of NL was measured at 580 nm (gain: 140). The final volume ratio of DMSO was less than 1% (V/V).
as §1
All measurements were made in triplicate and the data obtained in the experiment were shown as mean ± SD. The IC50 and Ki values of the compounds with strong inhibitory effect were evaluated by nonlinear regression with graphpad prism 7.0 software (GraphPad Software, Inc., La Jolla, CA).

[1] = NLMe substrate, HLM, mean ± SD (n = 3), read-out: IC50 (µM) hCES1A

Row | SMILES | IC50 (Pancreatic lipase (PL)) [µM] | IC50 (hCES1A; [1]) [µM] | IC50 (hCES1A) [µM]
1 | CC(C)=CCC[C@](C)(O)[C@H]1CC[C@]2(C)[C@@H]1[C@H](O)C[C@@H]1[C@@]3(C)CC[C@H](O)C(C)(C)[C@@H]3[C@@H](O[C@@H]3O[C@H](CO)[C@@H](O)[C@H](O)[C@H]3O[C@@H]3O[C@@H](C)[C@H](O)[C@@H](O)[C@H]3O)C[C@]12C [Compound 23] | > 100 |  | 
2 | CC(C)=CCC[C@](C)(O[C@@H]1O[C@H](CO)[C@@H](O)[C@H](O)[C@H]1O)[C@H]1CC[C@]2(C)[C@@H]1[C@H](O)C[C@@H]1[C@@]3(C)CC[C@H](O)C(C)(C)[C@@H]3[C@@H](O[C@@H]3O[C@H](CO)[C@@H](O)[C@H](O)[C@H]3O[C@@H]3OC[C@@H](O)[C@H](O)[C@H]3O)C[C@]12C [Compound 27] | > 100 |  | 
3 | CC(C)=CCC[C@](C)(O)[C@H]1CC[C@]2(C)[C@@H]1[C@H](O)C[C@@H]1[C@@]3(C)CC[C@H](O)C(C)(C)[C@@H]3[C@@H](O[C@@H]3O[C@H](CO)[C@@H](O)[C@H](O)[C@H]3O)C[C@]12C [Compound 24] | > 100 |  | 
4 | CC1(C)CC[C@]2(C(=O)O)CC[C@]3(C)C(=CC[C@@H]4[C@@]5(C)C[C@@H](O)[C@H](O)C(C)(C)[C@@H]5CC[C@]43C)[C@@H]2C1 [Compound 2, maslinic acid] | 16 ± 4.59 |  | 0.12 ± 0.01
5 | CC(=O)OC1CCC2(C)C(CCC3(C)C2CC=C2C4CC(C)(C)CCC4(C(=O)O)CCC23C)C1(C)C (stereo not drawn) [Compound 31] | 3.67 ± 0.72 |  | 0.051 ± 0.005
6 | CC(C)=CCC=C(C)C1CCC2(C)C1C(O)CC1C3(C)CCC(O)C(C)(C)C3C(OC3OC(CO)C(O)C(O)C3OC3OC(C)C(O)C(O)C3O)CC12C (stereo not drawn) [Compound 19] | 74.5 ± 28.4 |  | 
7 | CC1=C(O)C(=O)C=C2C1=CC=C1[C@@]2(C)CC[C@@]2(C)[C@@H]3C[C@](C)(C(=O)O)CC[C@]3(C)CC[C@]12C [Compound 11, Celastrol] | 4.69 ± 0.37 |  | 14.3 ± 3.03
8 | C=C(C)[C@@H]1CC[C@]2(C)CC[C@]3(C)[C@H](CC[C@@H]4[C@@]5(C)CC[C@H](O)C(C)(C)[C@@H]5CC[C@]43C)[C@@H]12 [Compound 15] | > 100 |  | 
9 | CC(C)=CCC[C@](C)(O[C@@H]1O[C@H](CO)[C@@H](O)[C@H](O)[C@H]1O)[C@H]1CC[C@]2(C)[C@@H]1[C@H](O)C[C@@H]1[C@@]3(C)CC[C@H](O)C(C)(C)[C@@H]3[C@@H](O[C@@H]3O[C@H](CO)[C@@H](O)[C@H](O)[C@H]3O)C[C@]12C [Compound 22] | > 100 |  | 
10 | CC1(C)CC[C@]2(C(=O)O[C@@H]3O[C@H](CO)[C@@H](O)[C@H](O)[C@H]3O)CC[C@]3(C)C(=CC[C@@H]4[C@@]5(C)CC[C@H](O[C@@H]6O[C@H](C(=O)O)[C@@H](O)[C@H](O)[C@H]6O[C@@H]6O[C@H](CO)[C@@H](O)[C@H](O)[C@H]6O)C(C)(C)[C@@H]5CC[C@]43C)[C@@H]2C1 [Compound 26] | > 100 |  | 
11 | CC(C)=CCCC(C)(OC1OC(CO)C(O)C(O)C1O)C1CCC2(C)C1C(O)CC1C3(C)CCC(O)C(C)(C)C3C(OC3OC(CO)C(O)C(O)C3OC3OC(CO)C(O)C(O)C3O)CC12C (stereo not drawn) [Compound 20] | 29.7 ± 5.02 |  | 
12 | CC(C)=CCC[C@](C)(O[C@@H]1O[C@H](CO)[C@@H](O)[C@H](O)[C@H]1O)[C@H]1CC[C@]2(C)[C@@H]1[C@H](O)C[C@@H]1[C@@]3(C)CC[C@H](O)C(C)(C)[C@@H]3[C@@H](O[C@@H]3O[C@H](CO)[C@@H](O)[C@H](O)[C@H]3O[C@@H]3O[C@@H](C)[C@H](O)[C@@H](O)[C@H]3O)C[C@]12C [Compound 21] | > 100 |  | 

Now from value to compound, other results behind:

Row | IC50 (Pancreatic lipase (PL)) [µM] | IC50 (hCES1A; [1]) [µM] | SMILES | IC50 (hCES1A) [µM]
13 | 36.4 ± 5.17 | 0.043 ± 0.003 | CC1(C)CCC2(C(=O)O)CCC3(C)C(=CCC4C5(C)CCC(OC(=O)CCC(=O)O)C(C)(C)C5CCC43C)C2C1 (stereo not drawn) [Compound 33] | 
14 | > 100 |  | CC1(C)CC[C@]2(C(=O)O)[C@H](O)C[C@]3(C)C(=CC[C@@H]4[C@@]5(C)C[C@@H](O)[C@H](O)[C@@](C)(CO)[C@@H]5CC[C@]43C)[C@@H]2C1 [Compound 4, polygalacic acid] | 
15 | > 100 |  | C=C(CC[C@@H](C(=O)O)[C@H]1[C@H](O)C[C@@]2(C)C3=C(CC[C@]12C)[C@@]1(C)CC[C@H](OC(C)=O)C(C)(C)[C@@H]1CC3)C(C)C [Compound 16, pachymic acid] | 
16 | 20.9 ± 1.78 |  | CC1CCC2(C(=O)O)CCC3(C)C(=CCC4C5(C)CCC(OC(=O)CCC(=O)O)C(C)(C)C5CCC43C)C2C1C (stereo not drawn) [Compound 42] | 0.028 ± 0.003
17 | > 100 |  | CC(C)=CC/C=C(\C)[C@H]1CC[C@]2(C)[C@@H]1[C@H](O)C[C@@H]1[C@@]3(C)CC[C@H](O)C(C)(C)[C@@H]3[C@@H](O[C@@H]3O[C@H](CO)[C@@H](O)[C@H](O)[C@H]3O)C[C@]12C [Compound 25] | 
18 | 7.83 ± 1.21 | 0.48 ± 0.06 | CC1(C)CCC2(C(N)=O)CCC3(C)C(=CCC4C5(C)CCC(O)C(C)(C)C5CCC43C)C2C1 (stereo not drawn) [Compound 38] | 
19 | 6.16 ± 0.97 | 0.04 ± 0.004 | C[C@H]1[C@H](C)CC[C@]2(C(=O)O)CC[C@]3(C)C(=CC[C@@H]4[C@@]5(C)CC[C@H](O)C(C)(C)[C@@H]5CC[C@]43C)[C@H]12 [Compound 5, ursolic acid] | 
20 | > 100 |  | C=C(C)[C@@H]1CC[C@]2(C(=O)O)CC[C@]3(C)[C@H](CC[C@@H]4[C@@]5(C)CC[C@H](O)C(C)(C)[C@@H]5CC[C@]43C)[C@@H]12 [Compound 14] | 
21 | 28.3 ± 9.47 |  | CC1(C)[C@@H](O)CC[C@]2(C)[C@H]3C(=O)C=C4[C@@H]5C[C@@](C)(C(=O)O)CC[C@]5(C)CC[C@@]4(C)[C@]3(C)CC[C@@H]12 [Compound 9, glycyrrhetic acid] | 
22 |  | 0.035 ± 0.003 | CCCCCCCCCCC[C@@H](C[C@@H]1OC(=O)[C@H]1CCCCCC)OC(=O)[C@H](CC(C)C)NC=O [Compound 28, Orlistat, reference compound] | 
23 | > 100 |  | CC1(C)[C@@H](O[C@H]2O[C@H](C(=O)O)[C@@H](O)[C@H](O)[C@H]2O[C@@H]2O[C@H](C(=O)O)[C@@H](O)[C@H](O)[C@H]2O)CC[C@]2(C)[C@H]3C(=O)C=C4[C@@H]5C[C@@](C)(C(=O)O)CC[C@]5(C)CC[C@@]4(C)[C@]3(C)CC[C@@H]12 [Compound 10, glycyrrhizic acid] | 
24 | > 100 |  | CC(CC(=O)C[C@@H](C)[C@H]1CC(=O)[C@@]2(C)C3=C(C(=O)C[C@]12C)[C@@]1(C)CC[C@H](O)C(C)(C)[C@@H]1C[C@@H]3O)C(=O)O (stereo partly drawn) [Compound 17, ganoderic acid B] | 
25 | > 100 |  | CC(C)=CCC[C@](C)(O[C@@H]1O[C@H](CO)[C@@H](O)[C@H](O)[C@H]1O)[C@H]1CC[C@]2(C)[C@@H]1[C@H](O)C[C@@H]1[C@@]3(C)CC[C@H](O)C(C)(C)[C@@H]3[C@@H](O)C[C@]12C [Compound 18] | 
26 | > 100 |  | C=C(C)[C@@H]1CC[C@]2(C=O)CC[C@]3(C)[C@H](CC[C@@H]4[C@@]5(C)CC[C@H](O)C(C)(C)[C@@H]5CC[C@]43C)[C@@H]12 [Compound 13] | 
